Data taken from patent publication US10066208B2, “Kit and method for promoting mesenchymal stem cell differentiation” (priority 2014, dated 2018).

Tests used:
mesenchymal stem cell [1] = assay: Real-time PCR gene expression of mesenchymal stem cell in tri-copolymer scaffold with kartogenin, bioreactor culture; assay type: cell-based, Wistar rats
From the text: (§1) The gene expression of the mesenchymal stem cell was examined by Real-time PCR. The results were used for determining the medium formulation in the following scaffold culture and bioreactor culture. The primers used in the present invention were shown as the following table:
(§2) The mesenchymal stem cells used in the present invention were in the third generation of subculture to ensure the maintenance of the cell morphology. The proliferated stem cells were dissociated by trpsin, collected and condensed to 10^7 cells/mL. 50 μL of the cell solution was seeded on each dry scaffold. The cells were divided into static culture group and bioreactor culture group. The former changed the medium every 2 to 3 days and in the latter, after cells seeding into the scaffold and culturing for one day, it was moved into the bioreactor.
After culturing the tri-copolymer material, the mesenchymal stem cell and kartogenin in the bioreactor for 7, 14 and 21 days, mRNA genes expression were examined. In this example, the control group was the mesenchymal stem cell culturing […].
After culturing in the bioreactor for 7, 14, and 21 days, mRNA gene expression was examined. In this example, the control group was the mesenchymal stem cell culturing on the 2-dimensional plate for 1 day.

mesenchymal stem cell [2] = assay: Alcian Blue stain of mesenchymal stem cell condensation and glycosaminoglycan secretion, 2-dimensional plate culture; assay type: cell-based, Wistar rats; details: 3 and 7 days, vs control without kartogenin
From the text: The Isolation and Culture of the Mesenchymal Stem Cell • 1. The cell source was taken from the four limbs of two-week old Wistar rats. Rats were sacrificed and immersed in 75% alcohol. The operation process for taking four limbs was under half sterile environment. • 2. During the cellular collecting processes, sterilized equipments were used in the whole processes. Both tibia and femur of the lower limb were taken. The tip of the scissor was used to separate the bone and the muscle. The knee joints and the hip joints were taken down along the bones; the part near the ankle was difficult to remove completely, so a direct cut was made close to the ankle joints. Only the humerus in upper limb had enough amounts of cells, so just took humerus and the scapula was processed as ankle joints in having a direct cut. Finally the limbs were soaked and washed in phosphate buffer solution (PBS) with 10% antibiotics (penicillin 10,000/ml, streptomycin 10 mg/ml, amphotericin-B 0.025 mg/ml). • 3. The muscle on the limbs was clearly removed under solution, the protruding parts of the two ends were cut out and soaked into new PBS (containing 1% antibiotics). Cells were washed out by syringe filled with PBS. • 4. PBS containing cells was placed in centrifuge tubes and centrifugated at 2000 rpm for 5 minutes. The red blood cells were suspended cells which adhered to and flowed with the mesenchymal stem cell. […]

mesenchymal stem cell [3] = assay: Live and death staining (Calcein-AM/PI) of mesenchymal stem cell in tri-copolymer scaffold, static culture; assay type: cell-based, Wistar rats; details: 1.0 kartogenin, 7 days, vs control group
Method: as §2
After the combination of the gelatin-hyaluronan-chondroitin tri-copolymer with the mesenchymal stem cell, the differentiating effects under the 3-dimensional culture were confirmed. Through the live and death staining, the cell condensation during early differentiation stage was examined at the presence of 1.0 kartogenin. […] Apoptosis was the process during chondrogenic differentiation of stem cell.
The fluorescent staining of Calcein-AM and Propidium Iodide (PI) was used to examine the survival distribution of the cells in the scaffold. The former was lipophilic which could easily enter into the living cell and being hydrolyzed to produce fluorescent compounds, calcein, so that only the living cell could be stained with Calcin-AM. […] When PI bound to a DNA double helix, it emitted red fluorescence. […]

mesenchymal stem cell [4] = assay: Hematoxylin/Eosin histological examination of cell-material complex sections, bioreactor culture; assay type: cell-based, Wistar rats; details: tri-copolymer scaffold
Method: After combining the gelatin-hyaluronan-chondroitin tri-copolymer and the stem cell, the coculture construct was seeded and transferred into the dynamic bioreactor for culturing. The morphology of the differentiated cells were stained with Hematoxylin/Eosin, and in the present example, the cell-material complex sections were examined at 3 time points: Day 0, 7 and 21.

mesenchymal stem cell [5] = assay: DMMB quantification of glycosaminoglycans in the bioreactor medium; assay type: cell-based, Wistar rats; details: tri-copolymer scaffold, kartogenin, day 7, 14 and 21
Method: 1,9-dimethylmethlene blue (DMMB) method was used for quantifying Glycosaminoglycans (GAGs). 16 mg of DMMB was dissolved in 5 mL of 95% ethanol and diluted with 3 mL of formic acid and 25.6 mL of NaOH. Double distilled water was used to adjust the final volume to 1 liter, and the solution was maintained at pH 3.5.
250 μL of the DMMB solutions were added into 40 μL of the diluted sample solutions which were from different time points. After reacted in the dark for 10 min, the absorbance of 520 nm was detected and then the GAGs concentration was determined by interpolated onto the standard curve calculated by the chondroitin-6-sulfate.
The GAGs concentrations in the medium were determined by the DMMB method through collecting samples from the bioreactor at different time points.

hMSC = details: cited from earlier work
mesenchymal stem cell [6] = assay: Immunohistochemical staining of aggrecan and type II collagen, bioreactor culture; assay type: cell-based, Wistar rats; details: tri-copolymer scaffold, kartogenin
Method: The aggrecan and the type II collagen were characteristic proteins of the cartilage cells. The coculture structure was cultured in the dynamic bioreactor and the expressions of the proteins were presented by immunohistochemical staining. The samples culturing under the dynamic culture environment for 7, 14, and 21 days were washed in PBS, immersed in 2.5% formaldehyde for 30 minutes for immobilization. The samples were paraffin-embedded and sectioned into 5 μm. The immunohistochemistry was used to examine the characteristic protein of the cartilage cells which comprises the aggrecan and the type II collagen. After dewaxing by xylene and rehydration, the activity of endogenous peroxidase was cleaned by Hydrogen Peroxide Block reagent (ab80436, abcam, MA, USA). After antigen was repaired, non-specific background protein was bound by Protein Block (ab80436). The primary antibodies (rabbit anti-collagen-II (ab53047), rabbit anti-aggrecan (GTX86902)) of type II collagen and aggrecan were reacted with the tissue slices at 4° C. for 12 hr. After rinsing, the slices were bound with horseradish peroxidase (HRP) conjugated secondary antibody (goat anti-rabbit HRP conjugate). […] Last, the hematoxylin was incubated with the slices at room temperature for 30 minutes for counterstain.
In the present example, the cell-material complex sections were examined at 3 time points: Day 0, 7 and 21. […]

mesenchymal stem cell [7] = assay: Safranin-O staining of glycosaminoglycans, bioreactor culture; assay type: cell-based, Wistar rats; details: tri-copolymer scaffold, kartogenin, 21 days
From the text: Glycosaminoglycans (GAGs) were mainly the content of the extracellular matrix secreted by the chondrocyte.
The cells were distributed on the tri-copolymer scaffold at the beginning of culture. Red was for Safranin-O staining. The Safranin-O staining of the background was from the chondroitin-6-sulfate of the material itself which was one of the Glycosaminoglycans. […] After the cell culturing for 21 days, the cell mass was examined, of which size was about 100 μm.

mesenchymal stem cell [8] = assay: Real-time PCR gene expression of mesenchymal stem cell, 2-dimensional plate culture; assay type: cell-based, Wistar rats
From the text: The Isolation and Culture of the Mesenchymal Stem Cell • 1. The cell source was taken from the four limbs of two-week old Wistar rats. Rats were sacrificed and immersed in 75% alcohol. The operation process for taking four limbs was under half sterile environment. • 2. During the cellular collecting processes, sterilized equipments were used in the whole processes. Both tibia and femur of the lower limb were taken. The tip of the scissor was used to separate the bone and the muscle. The knee joints and the hip joints were taken down along the bones; the part near the ankle was difficult to remove completely, so a direct cut was made close to the ankle joints. Only the humerus in upper limb had enough amounts of cells, so just took humerus and the scapula was processed as ankle joints in having a direct cut. Finally the limbs were soaked and washed in phosphate buffer solution (PBS) with 10% antibiotics (penicillin 10,000/ml, streptomycin 10 mg/ml, amphotericin-B 0.025 mg/ml). • 3. The muscle on the limbs was clearly removed under solution, the protruding parts of the two ends were cut out and soaked into new PBS (containing 1% antibiotics). Cells were washed out by syringe filled with PBS. • 4. PBS containing cells was placed in centrifuge tubes and centrifugated at 2000 rpm for 5 minutes. The red blood cells were suspended cells which adhered to and flowed with the mesenchymal stem cell. The supernatant was carefully removed. • 5. Hank's Balanced Salt Solution (HBSS) was added into the centrifugated cells. After mixing up, 5 mL of HBSS mixed with cells was added into 5 mL of Ficoll separating solution and centrifugated at 18-20° C. at the speed 300 g for 40 minutes. • 6. After centrifugation, the supernatant was sucked out; large amount of PBS was added to dilute the Ficoll separating solution and washed for 2-3 times. • 7. Medium was added into the centrifugated cells and mixed up for culturing. Dulbecco's Modified Eagle Medium (DMEM) with 10% fetal bovine serum (FBS) was used for the stem cell medium in this example. • 8. After the cells attached, the medium was changed every 2-3 days. When the cells was fully confluent, subcultured as the proportion of one to three or one to four.
as §1
The cells cultured in DMEM with 10% FBS were used as the control group.

[9] = day 7, control MSC on 2-dimensional plate 1 day
[10] = day 14, control MSC on 2-dimensional plate 1 day
[11] = day 21, control MSC on 2-dimensional plate 1 day

O=C(O)c1ccccc1C(=O)Nc1ccc(-c2ccccc2)cc1 [kartogenin]
Aggrecan expression compared to the control group (mesenchymal stem cell [1]; day 7): 11.66±4.75 fold
Col2a1 gene expression compared to the control group (mesenchymal stem cell [1]; day 7): 13.6±4.7 fold
TIMPs expression (mesenchymal stem cell [1]; day 7): 5.60±1.24 fold
Sox-9 expression (mesenchymal stem cell [1]; day 7, control MSC cultured 1 day): 2.51±0.90 fold
Col1a1 expression compared to the control group (mesenchymal stem cell [1]; [9]): 13.19±2.90 fold
Col10a1 expression (mesenchymal stem cell [1]; [9]): 39.23±9.39 fold
Runx 2 expression compared to the control group (mesenchymal stem cell [1]; [9]): 8.60±3.55 fold
Aggrecan expression compared to the control group (mesenchymal stem cell [1]; day 14): 12.33±6.3 fold
Col2a1 gene expression compared to the control group (mesenchymal stem cell [1]; day 14): 28.26±11.64 fold
TIMPs expression (mesenchymal stem cell [1]; day 14): 5.79±5.25 fold
Sox-9 expression (mesenchymal stem cell [1]; day 14, control MSC cultured 1 day): 3.91±2.12 fold
Col1a1 expression compared to the control group (mesenchymal stem cell [1]; [10]): 17.26±1.38 fold
Col10a1 expression (mesenchymal stem cell [1]; [10]): 36.08±26.00 fold
Runx 2 expression compared to the control group (mesenchymal stem cell [1]; [10]): 9.89±3.82 fold
Aggrecan expression compared to the control group (mesenchymal stem cell [1]; day 21): 9.74±3.83 fold
Col2a1 gene expression compared to the control group (mesenchymal stem cell [1]; day 21): 40.32±9.13 fold
TIMPs expression (mesenchymal stem cell [1]; day 21): 3.94±1.08 fold
Sox-9 expression (mesenchymal stem cell [1]; day 21, control MSC cultured 1 day): 3.06±0.99 fold
Col1a1 expression compared to the control group (mesenchymal stem cell [1]; [11]): 13.14±6.07 fold
Col10a1 expression (mesenchymal stem cell [1]; [11]): 5.56±5.23 fold
Runx 2 expression compared to the control group (mesenchymal stem cell [1]; [11]): 7.35±1.96 fold
early condensation and secretion of glycosaminoglycans (Alcian Blue stain) (mesenchymal stem cell [2]; 0.1 μM kartogenin): promoted the condensation phenomenon
early condensation and secretion of glycosaminoglycans (Alcian Blue stain) (mesenchymal stem cell [2]; 1.0 μM kartogenin): promoted the condensation phenomenon
cell condensation (live and death staining) (mesenchymal stem cell [3]): cell condensation was occurred
proportion of cell death (live and death staining) (mesenchymal stem cell [3]): higher
cell condensation (Hematoxylin/Eosin section) (mesenchymal stem cell [4]; kartogenin induction, day 7): cell condensation was presence
lacunae structure (Hematoxylin/Eosin section) (mesenchymal stem cell [4]; kartogenin, day 21): lacunae like structure was examined
size of the cell mass (Hematoxylin/Eosin section) (mesenchymal stem cell [4]; kartogenin, day 21): about 100 μm
secretion of GAGs into the medium (DMMB method) (mesenchymal stem cell [5]): increased
EC50 (hMSC): 100 nM
type II collagen expression (immunohistochemical staining) (mesenchymal stem cell [6]; day 7 and 21, not distinct at day 0): positively stained
aggrecan expression (immunohistochemical DAB staining) (mesenchymal stem cell [6]; day 21 compared with day 7): higher expression of aggrecan
accumulation of GAGs (Safranin-O staining) (mesenchymal stem cell [7]): accumulation of the GAGs was examined on the surface of the cell mass
size of the cell mass (Safranin-O/Hochest staining) (mesenchymal stem cell [7]): about 100 μm
TIMPs expression compared to the control group (mesenchymal stem cell [8]; 0.1 μM kartogenin, day 14): 0.91±0.04 fold
Sox-9 gene expression relative to the control group (mesenchymal stem cell [8]; 1.0 μM kartogenin, 7 days): 1.66±0.27 fold
Aggrecan gene expression (mesenchymal stem cell [8]; 1.0 μM kartogenin, 7 days, higher than 0.1 μM group (p<0.001)): 3.99±0.63 fold
Aggrecan gene expression compared to the untreated group (mesenchymal stem cell [8]; 1.0 μM kartogenin, 14 days): 6.44±0.35 fold
Sox-9 gene expression (mesenchymal stem cell [8]; 1.0 μM kartogenin, day 3 and day 7): up-regulated
Sox-9 gene expression (mesenchymal stem cell [8]; 1.0 μM kartogenin, day 14): 0.56±0.04 fold
TIMPs expression compared to the control group (mesenchymal stem cell [8]; 1.0 μM kartogenin, day 14): 1.63±0.249 fold
